{
  "source": "ChEMBL document CHEMBL1221387",
  "about": "“Prenylflavonoids from Glycyrrhiza uralensis and their protein tyrosine phosphatase-1B inhibitory activities” (Bioorg Med Chem Lett, 2010)",
  "molecular_target": "T1, Tyrosine-protein phosphatase non-receptor type 1 (Homo sapiens) (UniProt P18031)",
  "T1 sequence (whole entry)": "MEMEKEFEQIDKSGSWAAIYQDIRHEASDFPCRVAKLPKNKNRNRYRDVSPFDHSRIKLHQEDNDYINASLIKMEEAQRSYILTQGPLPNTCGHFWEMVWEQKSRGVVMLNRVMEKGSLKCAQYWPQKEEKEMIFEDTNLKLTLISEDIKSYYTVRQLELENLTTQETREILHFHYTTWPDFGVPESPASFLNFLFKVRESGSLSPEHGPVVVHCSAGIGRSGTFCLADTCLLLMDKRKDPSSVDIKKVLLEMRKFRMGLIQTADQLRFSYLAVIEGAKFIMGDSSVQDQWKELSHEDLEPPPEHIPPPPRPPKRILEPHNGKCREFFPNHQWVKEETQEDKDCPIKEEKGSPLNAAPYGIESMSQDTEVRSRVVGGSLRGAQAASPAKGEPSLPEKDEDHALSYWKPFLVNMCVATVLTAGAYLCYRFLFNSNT",
  "test": "Mixed type inhibition of human recombinant PTP1B at 30 uM by Lineweaver-Burke plot analysis",
  "note": "Activity calls are given as the source filed them. The calls are words filed in the database; no cut-off is given here.",
  "data": [
    {"compound": "COc1cc(O)cc2occ(-c3cc(O)c(O)c(CC=C(C)C)c3)c(=O)c12", "values": [
      {"measurement": "inhibition", "result": "Active"}
    ]}
  ]
}
